Test results taken from ChEMBL document CHEMBL3596153, “Trichormamides C and D, antiproliferative cyclic lipopeptides from the cultured freshwater cyanobacterium cf. Oscillatoria sp. UIC 10045” (Bioorg Med Chem, 2015).
pIC50: −log10 of the molar value. Converted amounts (≈) assume the structure as drawn. The source made the active and inactive calls. No cut-off for these calls is given here.

Tests used:
Staphylococcus aureus = experiment: Antimicrobial activity against Staphylococcus aureus at 50 ug/ml; assay type: functional, organism-based
HT-29 = experiment: Antiproliferative activity against human HT-29 cells; assay type: functional, cell-based
MDA-MB-435 = experiment: Antiproliferative activity against human MDA-MB-435 cells; assay type: functional, cell-based
Candida albicans = experiment: Antimicrobial activity against Candida albicans at 50 ug/ml; assay type: functional, organism-based
Escherichia coli = experiment: Antimicrobial activity against Escherichia coli at 50 ug/ml; assay type: functional, organism-based
[1] = test system: Mycobacterium tuberculosis; experiment: Antimicrobial activity against Mycobacterium tuberculosis; assay type: functional
[2] = test system: Mycolicibacterium smegmatis; experiment: Antimicrobial activity against Mycobacterium smegmatis at 50 ug/ml; assay type: functional, organism-based
[3] = test system: Mycobacterium tuberculosis; experiment: Antimicrobial activity against Mycobacterium tuberculosis at 50 ug/ml; assay type: functional, organism-based

| SMILES | Activity (Staphylococcus aureus) | pIC50 (HT-29) | pIC50 (MDA-MB-435) | Activity (Candida albicans) | Activity (Escherichia coli) | MIC [1] | Activity [2] | Activity [3] |
| --- | --- | --- | --- | --- | --- | --- | --- | --- |
| CCCCCCC[C@@H]1CC(=O)N[C@@H](C(C)C)C(=O)N[C@H]([C@@H](O)C(C)C)C(=O)N[C@@H](C)C(=O)N[C@H]([C@@H](O)C(C)C)C(=O)N[C@@H](CCC(N)=O)C(=O)N(C)[C@@H]([C@@H](C)CC)C(=O)N[C@H](CC(N)=O)C(=O)N[C@@H]([C@@H](C)O)C(=O)N2CCC[C@H]2C(=O)N[C@H](CC(C)C)C(=O)N[C@@H]([C@@H](C)O)C(=O)N1 | inactive | 5.77 | 6.00 | inactive | inactive | 23.8 µg/mL (≈ 17.3 µM) | inactive | – |
| C/C=C1/NC(=O)[C@H](CCC(N)=O)NC(=O)C[C@@H](CCCCCCC)NC(=O)CNC(=O)[C@H](CC(C)C)NC(=O)[C@@H](Cc2ccccc2)NC(=O)[C@H](C(C)C)NC(=O)[C@@H](CC(C)C)NC(=O)[C@@H](Cc2ccc(O)cc2)NC(=O)[C@H](CO)NC(=O)[C@@H]2CCCN2C1=O | inactive | 4.94 | 4.93 | inactive | inactive | – | inactive | inactive |
